In the supplement of paper PMC13380429:

Tests used:
Conditions in all cases: 72 h
Caco-2 [1] = assay: cell viability relative to DMSO; higher = less toxic
Calu-3 [2] = assay: as above
HepG2 [3] = assay: as above
U2OS [4] = assay: as above
Vero E6 [5] = assay: as above
Caco-2 [6] = assay: relative viability EC50 (midpoint between 100% and the lowest measured viability); higher = less toxic
Calu-3 [7] = assay: as above
HepG2 [8] = assay: as above
U2OS [9] = assay: as above
Vero E6 [10] = assay: as above
Caco-2 [11] = assay: drug sensitivity score (DSS) for viability; higher = more toxic; extreme values may be limits of the assay
Calu-3 [12] = assay: as above
HepG2 [13] = assay: as above
U2OS [14] = assay: as above
Vero E6 [15] = assay: as above

| Compound | cell viability (Caco-2 [1]; 1 nM) [%] | cell viability (Caco-2 [1]; 10 nM) [%] | cell viability (Caco-2 [1]; 100 nM) [%] | cell viability (Caco-2 [1]; 1000 nM) [%] | cell viability (Caco-2 [1]; 10000 nM) [%] | cell viability (Calu-3 [2]; 1 nM) [%] | cell viability (Calu-3 [2]; 10 nM) [%] | cell viability (Calu-3 [2]; 100 nM) [%] | cell viability (Calu-3 [2]; 1000 nM) [%] | cell viability (Calu-3 [2]; 10000 nM) [%] | cell viability (HepG2 [3]; 1 nM) [%] | cell viability (HepG2 [3]; 10 nM) [%] | cell viability (HepG2 [3]; 100 nM) [%] | cell viability (HepG2 [3]; 1000 nM) [%] | cell viability (HepG2 [3]; 10000 nM) [%] | cell viability (U2OS [4]; 1 nM) [%] | cell viability (U2OS [4]; 10 nM) [%] | cell viability (U2OS [4]; 100 nM) [%] | cell viability (U2OS [4]; 1000 nM) [%] | cell viability (U2OS [4]; 10000 nM) [%] | cell viability (Vero E6 [5]; 1 nM) [%] | cell viability (Vero E6 [5]; 10 nM) [%] | cell viability (Vero E6 [5]; 100 nM) [%] | cell viability (Vero E6 [5]; 1000 nM) [%] | cell viability (Vero E6 [5]; 10000 nM) [%] | relative viability EC50 (Caco-2 [6]) [µM] | relative viability EC50 (Calu-3 [7]) [µM] | relative viability EC50 (HepG2 [8]) [µM] | relative viability EC50 (U2OS [9]) [µM] | relative viability EC50 (Vero E6 [10]) [µM] | drug sensitivity score (Caco-2 [11]) | drug sensitivity score (Calu-3 [12]) | drug sensitivity score (HepG2 [13]) | drug sensitivity score (U2OS [14]) | drug sensitivity score (Vero E6 [15]) |
| --- | --- | --- | --- | --- | --- | --- | --- | --- | --- | --- | --- | --- | --- | --- | --- | --- | --- | --- | --- | --- | --- | --- | --- | --- | --- | --- | --- | --- | --- | --- | --- | --- | --- | --- | --- |
| CCCCN1CCCCC1C(=O)Nc1c(C)cccc1C (stereo not given) [bupivacaine] | 85.3 | 88.2 | 71.6 | 96.7 | 82.9 | 95.9 | 101 | 80.2 | 99.1 | 88.4 | 100 | 106 | 92.7 | 97.2 | 103 | 95.7 | 96.7 | 94.6 | 103 | 95.7 | 103 | 103 | 104 | 98.7 | 99.6 | > 10 | > 10 | > 10 | > 10 | > 10 | 0 | 0 | 0 | 0 | 0 |
| CC(NC(C)(C)C)C(=O)c1cccc(Cl)c1 (stereo not given) [bupropion] | 90.3 | 90.6 | 86.4 | 105 | 91.6 | 104 | 96.3 | 101 | 106 | 101 | 100 | 103 | 103 | 105 | 95 | 95.1 | 96 | 99 | 94.4 | 93.8 | 107 | 105 | 102 | 92.1 | 81.7 | > 10 | > 10 | > 10 | > 10 | > 10 | 0 | 0 | 0 | 0 | 1.3 |
| Cn1nc(C(C)(C)C)cc1C(=O)N[C@@H](Cc1cccc(Cl)c1)C(=O)NCC#N [cathepsin-inhibitor-1] | 99.8 | 99.3 | 86.7 | 93.5 | 92.3 | 103 | 89.1 | 105 | 94.9 | 91.8 | 94 | 103 | 112 | 90.8 | 98.4 | 97.7 | 99.1 | 92.8 | 94.2 | 90.9 | 95 | 99.3 | 102 | 96.2 | 98.4 | > 10 | > 10 | > 10 | > 10 | > 10 | 0 | 0 | 0 | 0 | 0 |
| CCCCCCCCCCCCCCCC[n+]1ccccc1 [cetylpyridinium] | 103 | 99 | 101 | 66.4 | 16.5 | 104 | 99.9 | 105 | 84.3 | 44.1 | 106 | 95.4 | 89.2 | 58.2 | 14.6 | 103 | 102 | 104 | 80.9 | 10.1 | 96.2 | 97.5 | 98.1 | 91.6 | 19.2 | 1.17 | 1.46 | 0.929 | 1.68 | 2.3 | 9.1 | 5.4 | 9.8 | 8 | 5.9 |
| NS(=O)(=O)c1cc2c(cc1Cl)N=CNS2(=O)=O [chlorothiazide] | 92.4 | 99.8 | 95.3 | 91 | 86.6 | 85.8 | 88.9 | 103 | 102 | 96.6 | 102 | 102 | 95.9 | 97.8 | 99 | 98.1 | 102 | 96.6 | 106 | 99 | 97.8 | 103 | 96.3 | 96.8 | 96.7 | > 10 | > 10 | > 10 | > 10 | > 10 | 0.1 | 0 | 0 | 0 | 0 |
| Cc1ccc2c(Cl)cc(Cl)c(O)c2n1 [chlorquinaldol] | 107 | 91.3 | 96.7 | 91.4 | 103 | 92.4 | 99.9 | 84.2 | 86.9 | 108 | 89.3 | 95.5 | 99.1 | 84.4 | 108 | 96.8 | 102 | 97.8 | 102 | 100 | 93.3 | 88.9 | 99.2 | 86.6 | 103 | > 10 | > 10 | > 10 | > 10 | > 10 | 0 | 0 | 0 | 0 | 0 |
| COc1ccc([C@]2(C#N)CC[C@@H](C(=O)O)CC2)cc1OC1CCCC1 [cilomilast] | 98.3 | 91.3 | 106 | 106 | 100 | 97.8 | 112 | 102 | 88.9 | 95.9 | 89.4 | 93.6 | 98.3 | 97.2 | 104 | 103 | 97.4 | 99.7 | 100 | 100 | 88.2 | 98.7 | 89.8 | 95.9 | 97.9 | > 10 | > 10 | > 10 | > 10 | > 10 | 0 | 0.3 | 0 | 0 | 0 |
